Reference: PubChem BioAssay (NCI)
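Briefly, cells in 96-well plates were exposed to five compound concentrations for 48 h, and endpoints were estimated by linear interpolation. At the GI50, growth is halved. TGI denotes the concentration required for complete inhibition of growth.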

Columns and labels:
Assay in all cases: NCI anticancer screen, dose series, 48 h
RPMI-8226 leukemia = tested on: RPMI-8226 leukemia
MDA-N = tested on: MDA-N
MALME-3M melanoma = tested on: MALME-3M melanoma
RXF 393 renal = tested on: RXF 393 renal
UO-31 renal = tested on: UO-31 renal
UACC-257 melanoma = tested on: UACC-257 melanoma
786-0 renal = tested on: 786-0 renal
SF-295 CNS = tested on: SF-295 CNS
OVCAR-4 ovarian = tested on: OVCAR-4 ovarian
LXFL 529 NSCLC = tested on: LXFL 529 NSCLC
DMS 114 small cell lung = tested on: DMS 114 small cell lung
M19-MEL melanoma = tested on: M19-MEL melanoma
SNB-78 CNS = tested on: SNB-78 CNS

SMILES | TGI (RPMI-8226 leukemia) [µM] | TGI (MDA-N) [µM] | TGI (MALME-3M melanoma) [µM] | TGI (RXF 393 renal) [µM] | TGI (UO-31 renal) [µM] | TGI (UACC-257 melanoma) [µM] | TGI (786-0 renal) [µM] | TGI (SF-295 CNS) [µM] | TGI (OVCAR-4 ovarian) [µM] | TGI (LXFL 529 NSCLC) [µM] | TGI (DMS 114 small cell lung) [µM] | TGI (M19-MEL melanoma) [µM] | GI50 (RPMI-8226 leukemia) [µM] | GI50 (MALME-3M melanoma) [µM] | GI50 (RXF 393 renal) [µM] | GI50 (UO-31 renal) [µM] | GI50 (UACC-257 melanoma) [µM] | GI50 (SF-295 CNS) [µM] | GI50 (OVCAR-4 ovarian) [µM] | TGI (SNB-78 CNS) [µM]
CNC(=O)Nc1ccccc1 | > 100 | > 100 | > 100 | > 100 | > 100 | > 100 | > 100 | > 100 | > 100 | – | – | – | – | – | – | – | – | – | – | –
Nc1nc(=O)n(CC(O)CO)s1 (stereo unspecified) | > 100 | – | > 100 | > 100 | > 100 | > 100 | – | > 100 | > 100 | > 100 | > 100 | > 100 | – | – | – | – | – | – | – | –
C[N+](C)(CCO)CCN1c2ccccc2Sc2ccccc21 | > 10 | > 10 | > 10 | > 10 | > 10 | – | – | > 10 | > 10 | – | – | – | – | – | – | – | – | – | – | –
CC(=O)C1=C(O)CCC1=O | > 100 | – | > 100 | > 100 | > 100 | > 100 | – | > 100 | > 100 | – | – | – | – | – | – | – | – | – | – | –
COc1cc2c(cc1OCCCN1CCN(c3ncnc4ccccc34)CC1)N=CC1CCCN1C2=O (stereo unspecified) | 0.0353 | – | 0.0479 | 0.0394 | 0.558 | 0.737 | – | 0.0545 | 8.63 | – | – | – | < 0.0119 | 0.0198 | 0.0205 | 0.0754 | 0.15 | 0.0258 | 0.0633 | –
C[C@]12CCC(=O)C=C1CC[C@@H]1[C@@H]2[C@@H](O)C[C@@]2(C)[C@H]1CC[C@]2(O)C(=O)COC(=O)C1CCCC1 | > 100 | > 100 | > 100 | > 100 | > 100 | > 100 | > 100 | > 100 | > 100 | – | – | – | – | – | – | – | – | – | – | –
O=C(NNC(=O)c1nsc2ccccc12)c1ccc(Cl)cc1 | 50.2 | – | – | 30.3 | 55.4 | 48.2 | – | – | – | 39.8 | – | 39.1 | – | – | – | – | – | – | – | 61.7
COc1ccc2nc3ccccc3c(NCc3ccc(C)cc3)c2c1 | – | – | 3.29 | 2.83 | 2.65 | 5 | – | 2.74 | 6.51 | – | – | – | – | 1.81 | 1.32 | 1.28 | 2.12 | 1.34 | 2.25 | –
Cn1c(=O)c2c(nc(NCCNc3nc4c(c(=O)n(C)c(=O)n4C)n3C)n2C)n(C)c1=O | – | > 100 | > 100 | > 100 | > 100 | > 100 | > 100 | > 100 | > 100 | – | – | – | – | – | – | – | – | – | – | –
O=S(O)c1cc(Cl)cc(Cl)c1OCc1ccccc1 | – | – | > 100 | > 100 | > 100 | > 100 | – | – | > 100 | > 100 | > 100 | > 100 | – | – | – | – | – | – | – | > 100
COc1cc2c(cc1OC)-c1cc3ccc(OC)c(OC)c3c[n+]1CC2 | > 100 | > 100 | > 100 | > 100 | > 100 | > 100 | > 100 | > 100 | > 100 | – | – | – | – | – | – | – | – | – | – | –
